Test results published in patent US20230250066A1, “HERBICIDAL CINNOLINE DERIVATIVES” (SYNGENTA CROP PROTECTION AG, priority 2020, published 2023).

How the values were obtained:
Format in all cases: in vivo
Zea mays (ZEAMX) [1] = experiment: Pre-emergence herbicidal test; conditions: 1000 g/ha, evaluated after 13 days
[2] = tested on: Ipomoea hederacea (IPOHE); experiment: Pre-emergence herbicidal test; conditions: 1000 g/ha, evaluated after 13 days
[3] = tested on: Abutilon theophrasti (ABUTH); experiment: Pre-emergence herbicidal test; conditions: 1000 g/ha, evaluated after 13 days
[4] = tested on: Echinochloa crus-galli (ECHCG); experiment: Pre-emergence herbicidal test; conditions: 1000 g/ha, evaluated after 13 days
[5] = tested on: Amaranthus retoflexus (AMARE); experiment: Pre-emergence herbicidal test; conditions: 1000 g/ha, evaluated after 13 days
[6] = tested on: Echinochloa crus-galli (ECHCG); experiment: Post-emergence herbicidal test; conditions: 1000 g/ha unless otherwise stated, evaluated after 13 days
Outline: (§1)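 Damage score (0–5; 5=81-100%, 1=10-20%, 0=0%) read 13 d after spraying. Spray: acetone/water 50:50 + 0.5% Tween 20, 1000 g/ha unless stated.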

[7] = tested on: Abutilon theophrasti (ABUTH); experiment: Post-emergence herbicidal test; conditions: 1000 g/ha unless otherwise stated, evaluated after 13 days
Outline: as §1

[8] = tested on: Ipomoea hederacea (IPOHE); experiment: Post-emergence herbicidal test; conditions: 1000 g/ha unless otherwise stated, evaluated after 13 days
Outline: as §1

[9] = tested on: Amaranthus retoflexus (AMARE); experiment: Post-emergence herbicidal test; conditions: 1000 g/ha unless otherwise stated, evaluated after 13 days
Outline: as §1

Setaria faberi (SETFA) [10] = experiment: Post-emergence herbicidal test; conditions: 1000 g/ha unless otherwise stated, evaluated after 13 days
Outline: as §1

Zea mays (ZEAMX) [11] = experiment: Post-emergence herbicidal test; conditions: 1000 g/ha unless otherwise stated, evaluated after 13 days
Outline: as §1

Setaria faberi (SETFA) [12] = experiment: Pre-emergence herbicidal test; conditions: 1000 g/ha, evaluated after 13 days

CCCCCCOC(=O)c1nn(-c2ccc(OC(F)(F)F)cc2)c2cccc(S(C)(=O)=O)c2c1=O [Compound P59, hexyl 5-methylsulfonyl-4-oxo-1-[4-(trifluoromethoxy)phenyl]cinoline-3-carboxylate]
4 (4=61-80%): percentage damage caused to the plant, ECHCG (five-point scale) [6] | percentage damage caused to the plant, SETFA (five-point scale) (Setaria faberi (SETFA) [10]) | percentage damage caused to the plant, five-point scale, SETFA (Setaria faberi (SETFA) [12])
2 (2=21-40%): percentage damage caused to the plant, five-point scale, IPOHE [2] | percentage damage caused to the plant, five-point scale, AMARE [5] | percentage damage caused to the plant, ZEAMX (five-point scale) (Zea mays (ZEAMX) [11])
3 (3=41-60%): percentage damage caused to the plant, five-point scale, ZEAMX (Zea mays (ZEAMX) [1]) | percentage damage caused to the plant, five-point scale, ABUTH [3] | percentage damage caused to the plant, five-point scale, ECHCG [4] | percentage damage caused to the plant, IPOHE (five-point scale) [8]
1 (1=10-20%): percentage damage caused to the plant, ABUTH (five-point scale) [7] | percentage damage caused to the plant, AMARE (five-point scale) [9]

CCOC(=O)c1nn(-c2ccc(OC(F)(F)F)cc2)c2cccc([S+](C)[O-])c2c1=O (stereo not drawn) [Compound P28, ethyl 5-methylsulfinyl-4-oxo-1-[4-(trifluoromethoxy)phenyl]cinnoline-3-carboxylate]
1 (1=10-20%): percentage damage caused to the plant, ABUTH (five-point scale) [7] | percentage damage caused to the plant, AMARE (five-point scale) [9] | percentage damage caused to the plant, SETFA (five-point scale) (Setaria faberi (SETFA) [10])
0 (0=0%): percentage damage caused to the plant, five-point scale, ZEAMX (Zea mays (ZEAMX) [1]) | percentage damage caused to the plant, five-point scale, IPOHE [2] | percentage damage caused to the plant, five-point scale, ABUTH [3] | percentage damage caused to the plant, five-point scale, ECHCG [4] | percentage damage caused to the plant, five-point scale, AMARE [5] | percentage damage caused to the plant, ECHCG (five-point scale) [6] | percentage damage caused to the plant, IPOHE (five-point scale) [8] | percentage damage caused to the plant, ZEAMX (five-point scale) (Zea mays (ZEAMX) [11]) | percentage damage caused to the plant, five-point scale, SETFA (Setaria faberi (SETFA) [12])

CCOC(=O)c1nn(-c2ccc(OC(F)(F)F)cc2)c2cc(C#N)cc(S(C)(=O)=O)c2c1=O [Compound P48, ethyl 7-cyano-5-methylsulfonyl-4-oxo-1-[4-(trifluoromethoxy)phenyl]cinnoline-3-carboxylate]
0 (0=0%): percentage damage caused to the plant, five-point scale, ZEAMX (Zea mays (ZEAMX) [1]) | percentage damage caused to the plant, five-point scale, IPOHE [2] | percentage damage caused to the plant, five-point scale, ABUTH [3] | percentage damage caused to the plant, five-point scale, ECHCG [4] | percentage damage caused to the plant, five-point scale, AMARE [5] | percentage damage caused to the plant, ECHCG (five-point scale) [6] | percentage damage caused to the plant, ABUTH (five-point scale) [7] | percentage damage caused to the plant, IPOHE (five-point scale) [8] | percentage damage caused to the plant, AMARE (five-point scale) [9] | percentage damage caused to the plant, SETFA (five-point scale) (Setaria faberi (SETFA) [10]) | percentage damage caused to the plant, ZEAMX (five-point scale) (Zea mays (ZEAMX) [11]) | percentage damage caused to the plant, five-point scale, SETFA (Setaria faberi (SETFA) [12])

COCCCOC(=O)c1nn(-c2ccc(OC(F)(F)F)cc2)c2cccc(S(C)(=O)=O)c2c1=O [Compound P69, 3-methoxypropyl 5-methylsulfonyl-4-oxo-1-[4-(trifluoromethoxy)phenyl]cinnoline-3-carboxylate]
3 (3=41-60%): percentage damage caused to the plant, ECHCG (five-point scale) [6]
2 (2=21-40%): percentage damage caused to the plant, ZEAMX (five-point scale) (Zea mays (ZEAMX) [11])
0 (0=0%): percentage damage caused to the plant, five-point scale, ZEAMX (Zea mays (ZEAMX) [1]) | percentage damage caused to the plant, five-point scale, IPOHE [2] | percentage damage caused to the plant, five-point scale, ABUTH [3] | percentage damage caused to the plant, five-point scale, AMARE [5] | percentage damage caused to the plant, AMARE (five-point scale) [9]
4 (4=61-80%): percentage damage caused to the plant, five-point scale, ECHCG [4] | percentage damage caused to the plant, SETFA (five-point scale) (Setaria faberi (SETFA) [10]) | percentage damage caused to the plant, five-point scale, SETFA (Setaria faberi (SETFA) [12])
1 (1=10-20%): percentage damage caused to the plant, ABUTH (five-point scale) [7] | percentage damage caused to the plant, IPOHE (five-point scale) [8]

COc1ccc2c(c1S(C)(=O)=O)c(=O)c(C(=O)O)nn2-c1ccc(OC(F)(F)F)cc1 [Compound P18, 6-methoxy-5-methylsulfonyl-4-oxo-1-[4-(trifluoromethoxy)phenyl]cinnoline-3-carboxylic acid]
2 (2=21-40%): percentage damage caused to the plant, SETFA (five-point scale) (Setaria faberi (SETFA) [10])
1 (1=10-20%): percentage damage caused to the plant, five-point scale, ZEAMX (Zea mays (ZEAMX) [1]) | percentage damage caused to the plant, five-point scale, ECHCG [4] | percentage damage caused to the plant, ECHCG (five-point scale) [6] | percentage damage caused to the plant, ABUTH (five-point scale) [7] | percentage damage caused to the plant, AMARE (five-point scale) [9] | percentage damage caused to the plant, ZEAMX (five-point scale) (Zea mays (ZEAMX) [11])
0 (0=0%): percentage damage caused to the plant, five-point scale, IPOHE [2] | percentage damage caused to the plant, five-point scale, ABUTH [3] | percentage damage caused to the plant, five-point scale, AMARE [5] | percentage damage caused to the plant, IPOHE (five-point scale) [8] | percentage damage caused to the plant, five-point scale, SETFA (Setaria faberi (SETFA) [12])

C#CCCCOC(=O)c1nn(-c2ccc(OC(F)(F)F)cc2)c2cccc(S(C)(=O)=O)c2c1=O [Compound P62, pent-4-ynyl 5-methylsulfonyl-4-oxo-1-[4-(trifluoromethoxy)phenyl]cinnoline-3-carboxylate]
1 (1=10-20%): percentage damage caused to the plant, ZEAMX (five-point scale) (Zea mays (ZEAMX) [11])
3 (3=41-60%): percentage damage caused to the plant, ECHCG (five-point scale) [6]
0 (0=0%): percentage damage caused to the plant, five-point scale, ZEAMX (Zea mays (ZEAMX) [1]) | percentage damage caused to the plant, five-point scale, IPOHE [2] | percentage damage caused to the plant, five-point scale, ABUTH [3] | percentage damage caused to the plant, five-point scale, AMARE [5] | percentage damage caused to the plant, ABUTH (five-point scale) [7] | percentage damage caused to the plant, IPOHE (five-point scale) [8] | percentage damage caused to the plant, AMARE (five-point scale) [9]
5 (5=81-100%): percentage damage caused to the plant, five-point scale, SETFA (Setaria faberi (SETFA) [12])
4 (4=61-80%): percentage damage caused to the plant, five-point scale, ECHCG [4] | percentage damage caused to the plant, SETFA (five-point scale) (Setaria faberi (SETFA) [10])

CS(=O)(=O)c1cccc2c1c(=O)c(C(=O)OCC1CC1)nn2-c1ccc(OC(F)(F)F)cc1 [Compound P63, cyclopropylmethyl 5-methylsulfonyl-4-oxo-1-[4-(trifluoromethoxy)phenyl]cinnoline-3-carboxylate]
3 (3=41-60%): percentage damage caused to the plant, five-point scale, ECHCG [4] | percentage damage caused to the plant, ECHCG (five-point scale) [6]
5 (5=81-100%): percentage damage caused to the plant, five-point scale, SETFA (Setaria faberi (SETFA) [12])
4 (4=61-80%): percentage damage caused to the plant, SETFA (five-point scale) (Setaria faberi (SETFA) [10])
0 (0=0%): percentage damage caused to the plant, five-point scale, ZEAMX (Zea mays (ZEAMX) [1]) | percentage damage caused to the plant, five-point scale, IPOHE [2] | percentage damage caused to the plant, five-point scale, ABUTH [3] | percentage damage caused to the plant, five-point scale, AMARE [5] | percentage damage caused to the plant, ABUTH (five-point scale) [7] | percentage damage caused to the plant, IPOHE (five-point scale) [8] | percentage damage caused to the plant, AMARE (five-point scale) [9] | percentage damage caused to the plant, ZEAMX (five-point scale) (Zea mays (ZEAMX) [11])

CC(C)(C)COC(=O)c1nn(-c2ccc(OC(F)(F)F)cc2)c2cccc(S(C)(=O)=O)c2c1=O [Compound P68, 2,2-dimethylpropyl 5-methylsulfonyl-4-oxo-1-[4-(trifluoromethoxy)phenyl]cinnoline-3-carboxylate]
3 (3=41-60%): percentage damage caused to the plant, ECHCG (five-point scale) [6] | percentage damage caused to the plant, SETFA (five-point scale) (Setaria faberi (SETFA) [10])
4 (4=61-80%): percentage damage caused to the plant, five-point scale, ECHCG [4] | percentage damage caused to the plant, five-point scale, SETFA (Setaria faberi (SETFA) [12])
1 (1=10-20%): percentage damage caused to the plant, ZEAMX (five-point scale) (Zea mays (ZEAMX) [11])
0 (0=0%): percentage damage caused to the plant, five-point scale, ZEAMX (Zea mays (ZEAMX) [1]) | percentage damage caused to the plant, five-point scale, IPOHE [2] | percentage damage caused to the plant, five-point scale, ABUTH [3] | percentage damage caused to the plant, five-point scale, AMARE [5] | percentage damage caused to the plant, ABUTH (five-point scale) [7] | percentage damage caused to the plant, IPOHE (five-point scale) [8] | percentage damage caused to the plant, AMARE (five-point scale) [9]

CCOC(=O)c1nn(-c2ccc(OC(F)(F)F)cc2)c2cccc(S(=O)(=O)C3CC3)c2c1=O [Compound P34, ethyl 5-cyclopropylsulfonyl-4-oxo-1-[4-(trifluoromethoxy)phenyl]cinnoline-3-carboxylate]
0 (0=0%): percentage damage caused to the plant, five-point scale, ZEAMX (Zea mays (ZEAMX) [1]) | percentage damage caused to the plant, five-point scale, IPOHE [2] | percentage damage caused to the plant, five-point scale, ABUTH [3] | percentage damage caused to the plant, five-point scale, ECHCG [4] | percentage damage caused to the plant, five-point scale, AMARE [5] | percentage damage caused to the plant, ECHCG (five-point scale) [6] | percentage damage caused to the plant, ABUTH (five-point scale) [7] | percentage damage caused to the plant, IPOHE (five-point scale) [8] | percentage damage caused to the plant, AMARE (five-point scale) [9] | percentage damage caused to the plant, SETFA (five-point scale) (Setaria faberi (SETFA) [10]) | percentage damage caused to the plant, ZEAMX (five-point scale) (Zea mays (ZEAMX) [11]) | percentage damage caused to the plant, five-point scale, SETFA (Setaria faberi (SETFA) [12])
